Reference: patent US4548944A, “Guanidino-heterocyclyl-phenyl-amidines and salts thereof” (Istituto de Angeli S.p.A., priority 1982, dated 1985)

Key:
[1] = tested on: Swiss mice; assay: Acute toxicity, single oral dose in Swiss mice; type: in vivo; details: 500 mg/kg, fasted 18 hours, mortality at 14 days, values expressed as base
Method: The acute toxicity of the particularly preferred compounds of the formula I was approximately determined by oral administration of a single dose to groups of 5 Swiss mice, fasted for 18 hours before the test. The evaluation of the incidence of mortality was considered 14 days after the administration. The results are shown in the following table, in which the values are expressed taking the compound as a base.

[2] = molecular target: T1, histamine H2 -receptors (Cavia porcellus, UniProt P47747); assay: In vitro inhibition of histamine-induced tachycardia (positive chronotropic effect) in isolated guinea pig atria; details: Krebs-Henseleit pH 7.4, 32° C., histamine 10^-6 g/ml, 30 min contact
T1 construct: isolated guinea pig atria suspended in an organ bath; from tissue; host or cells: isolated guinea pig atria
T1 sequence (P47747 whole entry): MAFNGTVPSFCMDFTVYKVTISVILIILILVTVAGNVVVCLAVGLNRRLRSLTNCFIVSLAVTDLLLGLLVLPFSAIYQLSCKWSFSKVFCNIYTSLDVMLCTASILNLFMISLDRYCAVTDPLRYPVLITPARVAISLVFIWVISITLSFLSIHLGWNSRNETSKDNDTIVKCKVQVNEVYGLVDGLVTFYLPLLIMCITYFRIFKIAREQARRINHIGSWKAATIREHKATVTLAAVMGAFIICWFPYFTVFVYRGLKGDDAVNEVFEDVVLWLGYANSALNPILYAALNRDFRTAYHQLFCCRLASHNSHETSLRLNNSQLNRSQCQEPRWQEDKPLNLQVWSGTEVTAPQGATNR
Method: The myocardial preparation, loaded with 1 gm isometric tension, was allowed to stabilize 60 minutes, and myocardial contractions were recorded through an isometric lever connected to a strain-gauge coupler, and the instantaneous rate was monitored with a cardiotachometer and a heat-writing pen recorder. After two control responses to histamine (10^-6 g/ml) the test compound was added to the bath at the desired final concentration and left for 30 minutes before the atria were again challenged with histamine. The chronotropic obtained in the presence of the antagonist was then compared to the control response to histamine, and the percent reduction of the histamine H2 -evoked response was calculated. […] 3, Smooth muscle, Ed. Daniel, E. E. Paton, M., Plenum Press, New York (1975); Ash and Schild, Br. J.Pharmacol. Chemother. 27, 427-439, 1966.

[3] = molecular target: T2, histamine H2 -receptors (Rattus norvegicus, UniProt P25102); assay: In vivo antisecretory activity on histamine-induced gastric secretion of acid (stomach-perfused rat); details: iv, histamine 1 mg/kg/hr, values expressed as base, read-out: ED50, inhibition of histamine-induced gastric secretion
T2 construct: intravenous or intraduodenal administration in stomach-perfused rats; from tissue; host or cells: stomach of the anesthetized living rat (in vivo)
T2 sequence (P25102 whole entry, the tested form may be a part): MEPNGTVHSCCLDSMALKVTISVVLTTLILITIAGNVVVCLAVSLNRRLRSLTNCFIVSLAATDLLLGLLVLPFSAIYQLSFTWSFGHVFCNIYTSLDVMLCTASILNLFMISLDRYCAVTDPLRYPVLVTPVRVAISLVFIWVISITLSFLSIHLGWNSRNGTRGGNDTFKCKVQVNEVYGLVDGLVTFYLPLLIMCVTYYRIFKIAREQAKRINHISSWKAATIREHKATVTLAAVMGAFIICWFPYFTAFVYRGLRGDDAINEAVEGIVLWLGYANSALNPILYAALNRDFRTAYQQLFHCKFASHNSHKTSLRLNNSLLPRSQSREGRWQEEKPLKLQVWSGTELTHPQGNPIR
Description: The ability of the test compounds to inhibit histamine-induced gastric secretion of acid was investigated after intravenous or intraduodenal administration in stomach-perfused rats, according to Gosh and Schild, Br. J. Pharmacol. Chemother. 13, 54, (1958).
The preparation of the animals under general anesthesia (urethane, 1 g/kg i.p.) and constant temperature, was achieved by inserting and tying in place polyethyl tubes (PE 50) in the esophagus and in the pyloricantral region. After the stomach was washed to remove residual of foods, continuous perfusion of the stomach was started with saline, 0.5 ml/min. (37° C.), primed by a Jobling peristaltic pump. After 30 minutes of perfusion adaptation, the stomach perfusate was collected in 30 min. samples, and titrated for acid content, expressed as μEq of NaOH 1N. As control acid output became constant, intravenous perfusion of histamine (1 mg/kg/hr) was started and maintained throughout the experimental period. After the acid secretion had reached the steadily higher level, increasing doses of the test compounds were injected intravenously in order to obtain dose-response functions. The ED50 was then calculated by standard procedure.

[4] = tested on: gastric acid secretion; details: cited from earlier work; for inhibition of gastric acid secretion relative to cimetidine: in vivo, literature
[5] = tested on: H2 -receptor; details: in vitro, literature; cited from earlier work

SMILES | No. Dead/No. Treated Mice [1] | EC50 [2] | ED50 [3] | effect on gastric acid secretion ([4]; literature (Black et al.)) | H2 -receptor antagonist potency relative to cimetidine [5] | inhibition of gastric acid secretion relative to cimetidine [4]
CCC(C)NC=Nc1cccc(-c2csc(NC(=N)N)n2)c1 (centres unmarked) [14(e), N-sec.Butyl-N'-[3-(2-guanidino-4-thiazolyl)-phenyl]-formamidine] | 0/5 | 0.3 µM | 0.041 mg/kg |  |  | 
COc1ccc(CN(CCN(C)C)c2ccccn2)cc1 [mepyramine] |  |  |  | no effect on gastric acid secretion |  | 
C#CCNC=Nc1cccc(-c2csc(NC(=N)N)n2)c1 [14(l), N-Propargyl-N'-[3-(2-guanidino-4-thiazolyl)-phenyl]-formamidine] | 0/5 | 3.1 µM | 0.074 mg/kg |  |  | 
CC(C)NC=Nc1cccc(-c2csc(NC(=N)N)n2)c1 [14(c), N-Isopropyl-N'-[3-(2-guanidino-4-thiazolyl)-phenyl]-formamidine] | 1/5 | 0.2 µM | 0.035 mg/kg |  |  | 
CCNC=Nc1cccc(-c2nsc(NC(=N)N)n2)c1 [14(ap), N-Ethyl-N'-[3-(5-guanidino-1,2,4-thiadiazol-3-yl)-phenyl]-formamidine] | 0/5 | 0.45 µM | 0.051 mg/kg |  |  | 
CCNC=Nc1cccc(-c2csc(NC(=N)N)n2)c1 [14(a), N-Ethyl-N'-[3-(2-guanidino-4-thiazolyl)phenyl]-formamidine] | 0/5 | 0.53 µM | 0.013 mg/kg |  |  | 
CC(C)CNC=Nc1cccc(-c2csc(NC(=N)N)n2)c1 [14(f), N-Isobutyl-N'-[3-(2-guanidino-4-thiazolyl)-phenyl]-formamidine] | 0/5 | 1.2 µM | 0.082 mg/kg |  |  | 
CCCCNC=Nc1cccc(-c2csc(N=C(N)N)n2)c1 [14(d), N-Butyl-N'-[3-(2-quanidino-4-thiazolyl)-phenyl]-formamidine] | 4/5 | 0.55 µM | 0.073 mg/kg |  |  | 
CN/C=N/c1cccc(-c2csc(N=C(N)N)n2)c1 [Example 14, N-Methyl-N'-[3-(2-guanidino-4-thiazolyl)-phenyl]-formamidine] | 0/5 | 0.33 µM | 0.02 mg/kg |  |  | 
CNC(=NCCSCc1csc(N=C(N)N)n1)NC#N [tiotidine] |  |  |  |  | more potent than cimetidine | more potent than cimetidine
CCCNC=Nc1cccc(-c2csc(NC(=N)N)n2)c1 [14(b), N-Propyl-N'-[3-(2-guanidino-4-thiazolyl)-phenyl]-formamidine] | 0/5 | 0.28 µM | 0.019 mg/kg |  |  | 
C=CCNC=Nc1cccc(-c2csc(NC(=N)N)n2)c1 [14(j), N-Allyl-N'-[3-(2-guanidino-4-thiazolyl)-phenyl]-formamidine] | 0/5 | 0.33 µM | 0.02 mg/kg |  |  | 
COCCNC=Nc1cccc(-c2csc(NC(=N)N)n2)c1 [14(p), N-(2-Methoxy-ethyl)-N'-[3-(2-guanidino-4-thiazolyl)-phenyl]-formamidine] | 0/5 | 0.48 µM | 0.05 mg/kg |  |  | 
CNC(=C[N+](=O)[O-])NCCSCc1ccc(CN(C)C)o1 [ranitidine] |  |  |  |  | more potent than cimetidine | more potent than cimetidine
N=C(N)Nc1nc(-c2cccc(N=CNCCCO)c2)cs1 [14(s), N-(3-Hydroxy-propyl)-N'-[3-(2-guanidino-4-thiazolyl)-phenyl]-formamidine] | 0/5 | 0.27 µM | 0.028 mg/kg |  |  | 
